{"source": "patent US12648946B2", "about": "“Combination of antibody-pyrrolobenzodiazepine derivative conjugate and PARP inhibitor” (DAIICHI SANKYO COMPANY, LIMITED, priority 2019, dated 2026)", "key": {"[1]": {"tested_on": "human pharyngeal cancer cell line FaDu", "experiment": "Cell growth inhibition test (2)", "type": "cell-based", "details": "144 h", "protocol": "(§1) The human pharyngeal cancer cell line FaDu obtained from ATCC (American Type Culture Collection) was used for evaluation. Cells were prepared with MEM containing 10% fetal bovine serum (GE Healthcare), MEM Non-Essential Amino Acids Solution (Thermo Fisher Scientific), and Sodium Pyruvate (Thermo Fisher Scientific) (Thermo Fisher Scientific; hereinafter, referred to as EMEM medium) to reach 6.25×10^3 cells/mL, and 80 μL portions of them were added into a 96-well cell culture microplate. After addition of the cells, the cells were cultured at 37° C. and 5% CO2 overnight.\n(§2) On the next day, 10 μL portions of pyrrolobenzodiazepine derivative A, B, or C diluted with EMEM medium to 100 pM, 50 pM, 25 pM, 12.5 pM, 6.25 pM, 3.13 pM, 1.56 pM, or 0.78 pM were added to the microplate. To each well without any pyrrolobenzodiazepine derivative, 10 μL of EMEM medium was added. Further, 10 μL portions of olaparib prepared with EMEM medium to reach 1 μM were added to the microplate. To each well without olaparib, 10 μL of EMEM medium was added. Thereafter, the microplate was cultured at 37° C. and 5% CO2 for 6 days. After culturing, the microplate was taken out of the incubator, and left to stand at room temperature for 30 minutes. CellTiter-Glo Luminescent Cell Viability Assay (Promega Corporation) in an amount equivalent to that of the culture solution was added, and stirred using a plate mixer. The microplate was left to stand at room temperature for 10 minutes, and thereafter the amount of emission was measured by using a plate reader (PerkinElmer).\nCell survival rates in wells with derivative A, B, or […] were calculated by using the following formula.\n(§3) [formula] • a: Mean value of amounts of emission from wells with derivative A, B, or C • b: Mean value of amounts of emission from wells with medium • IC50 values were calculated by using the following formula.\n(§4) [formula] • a: Concentration of derivative A, B, or C, a • b: Concentration of derivative A, B, or C, b • c: Cell survival rate when derivative A, B, or C of concentration a was added • d: Cell survival rate when derivative A, B, or C of concentration b was added • a and b satisfy a>b at points sandwiching a cell survival rate of 50%.\nCell survival rates in wells with derivative A, B, or C added together with 1 μM olaparib were calculated by using the following formula.\n[formula] • a: Mean value of amounts of emission from wells with derivative A, B, or C added together with 1 μM olaparib • b: Mean value of amounts of emission from wells with 1 μM olaparib • IC50 values were calculated by using the following formula.\nas §4, with “and 1 μM olaparib were” for “was”"}, "[2]": {"tested_on": "human pharyngeal cancer cell line FaDu", "experiment": "Cell growth inhibition test (3)", "type": "cell-based", "details": "144 h", "protocol": "as §1\nas §2, with “talazoparib” for “olaparib”, “2 nM” for “1 μM”, “talazoparib,” for “olaparib,”\nCell survival rates in wells with derivative A, B, or C were calculated by using the following formula.\nas §3, §4\nCell survival rates in wells with derivative A, B, or C added together with 2 nM talazoparib were calculated by using the following formula.\n[formula] • a: Mean value of amounts of emission from wells with derivative A, B, or C added together with 2 nM talazoparib • b: Mean value of amounts of emission from wells with 2 nM talazoparib • IC50 values were calculated by using the following formula.\nas §4, with “and 2 nM talazoparib were” for “was”"}, "[3]": {"tested_on": "human breast cancer cell line JIMT-1", "experiment": "Antitumor test (2), subcutaneous xenograft", "type": "in vivo, mouse", "details": "single administration", "protocol": "Mouse: Five- to six-week-old female BALB/c nude mice (Charles River Laboratories Japan, Inc.) were subjected to experiment. Assay and calculation formula: In all of the studies, the major axis and minor axis of a tumor were measured twice a week by using an electronic digital caliper ([…] Corp.), and the tumor volume (mm^3) was calculated. The calculation formula is as shown below. [formula] Each of the anti-CLDN6 antibody-drug conjugate ADC1, the anti-HER2 antibody-drug conjugate ADC2, and the anti-TROP2 antibody-drug conjugate ADC3 was diluted with ABS buffer (10 mM acetate buffer (pH 5.5), 5% sorbitol), and a liquid volume of 10 mL/kg was intravenously administered into the tail vein. […] LLC)/Dulbecco's Phosphate-Buffered Saline, and then a liquid volume of 10 mL/kg was intraperitoneally administered. […] LLC)/Dulbecco's Phosphate-Buffered Saline, and then a liquid volume of 10 mL/kg was orally administered. Niraparib was dissolved in DMSO, diluted with 0.5% methylcellulose, and then a liquid volume of 10 mL/kg was orally administered. The described method is common to Examples 34 to 37. […]"}}, "data": [{"molecule": "COc1ccc(C2=CN3C(=O)c4cc(OC)c(OCCCCCOc5cc6c(cc5OC)C(=O)N5CC7(CC7)C[C@H]5C=N6)cc4NC[C@@H]3C2)cc1", "note": "[derivative A, (11a′S)-7′-Methoxy-8′-[(5-{[(11aS)-7-methoxy-2-(4-methoxyphenyl)-5-oxo-5,10,11,11a-tetrahydro-1H-pyrrolo[2,1-c][1,4]benzodiazepin-8-yl]oxy}pentyl)oxy]-1′,11a′-dihydro-5′H-spiro[cyclopropane-1,2′-pyrrolo[2,1-c][1,4]benzodiazepine]-5′-one]", "values": [{"measurement": "IC50", "setting": "[1]; read-out: IC50, growth-suppressing effect, added singly, FaDu, 6 days (test 2)", "value": 8.6, "unit": "pM"}, {"measurement": "IC50", "setting": "[1]; read-out: IC50, growth-suppressing effect, added together with 1 μM olaparib, FaDu, 6 days", "value": 4.4, "unit": "pM"}, {"measurement": "IC50", "setting": "[2]; read-out: IC50, growth-suppressing effect, added singly, FaDu, 6 days (test 3)", "value": 7.7, "unit": "pM"}, {"measurement": "IC50", "setting": "[2]; read-out: IC50, growth-suppressing effect, added together with 2 nM talazoparib, FaDu, 6 days", "value": 4.7, "unit": "pM"}]}, {"molecule": "O=C(c1cc(Cc2n[nH]c(=O)c3ccccc23)ccc1F)N1CCN(C(=O)C2CC2)CC1", "note": "[olaparib, reference compound]", "values": [{"measurement": "inhibition at 1 µM", "setting": "[1]; 1 μM olaparib alone, 6 days", "value": "< 10", "unit": "%"}, {"measurement": "tumor growth-suppressing effect", "setting": "[3]; olaparib 50 mg/kg i.p. for 5 days from Day 0, JIMT-1", "value": "No tumor growth-suppressing effect"}]}, {"molecule": "Cn1ncnc1[C@H]1c2n[nH]c(=O)c3cc(F)cc(c23)N[C@@H]1c1ccc(F)cc1", "note": "[talazoparib]", "values": [{"measurement": "inhibition at 0.002 µM", "setting": "[2]; 2 nM talazoparib alone, 6 days", "value": "< 10", "unit": "%"}, {"measurement": "tumor growth-suppressing effect", "setting": "[3]; talazoparib 0.8 mg/kg oral for 5 days from Day 0, JIMT-1", "value": "No tumor growth-suppressing effect"}]}]}
